Assay results from patent publication US20250019701A1, “TREATMENT FOR INFLAMMATORY DISEASE” (priority 2021, published 2025).

What was measured:
THP-1 cells [1] = assay type: cell-based, human
A549 cells [2] = assay type: cell-based, human
ASC = assay type: cell-based, human; settings: THP-1; after ORF8 transfection; 30 uM Etifoxine or 200 nM PK11195 for 24 hours
Vero cells = settings: etifoxine 30 μM, counting adherent cells
A549 cells [3] = tested on: A549 cells
THP-1 cells [4] = assay type: cell-based, human; settings: 48 hours ligand treatment
[5] = target: T1, NLRP3 (NLR family pyrin domain containing 3) (human, UniProt Q96P20 1-1036); assay: co-immunoprecipitation from THP-1 cells, TSPO as bait, western blot
T1 construct: Endogenous protein in the THP-1 cell lysate; also called NRLP3
T1 sequence (Q96P20 whole entry, the tested form may be a part): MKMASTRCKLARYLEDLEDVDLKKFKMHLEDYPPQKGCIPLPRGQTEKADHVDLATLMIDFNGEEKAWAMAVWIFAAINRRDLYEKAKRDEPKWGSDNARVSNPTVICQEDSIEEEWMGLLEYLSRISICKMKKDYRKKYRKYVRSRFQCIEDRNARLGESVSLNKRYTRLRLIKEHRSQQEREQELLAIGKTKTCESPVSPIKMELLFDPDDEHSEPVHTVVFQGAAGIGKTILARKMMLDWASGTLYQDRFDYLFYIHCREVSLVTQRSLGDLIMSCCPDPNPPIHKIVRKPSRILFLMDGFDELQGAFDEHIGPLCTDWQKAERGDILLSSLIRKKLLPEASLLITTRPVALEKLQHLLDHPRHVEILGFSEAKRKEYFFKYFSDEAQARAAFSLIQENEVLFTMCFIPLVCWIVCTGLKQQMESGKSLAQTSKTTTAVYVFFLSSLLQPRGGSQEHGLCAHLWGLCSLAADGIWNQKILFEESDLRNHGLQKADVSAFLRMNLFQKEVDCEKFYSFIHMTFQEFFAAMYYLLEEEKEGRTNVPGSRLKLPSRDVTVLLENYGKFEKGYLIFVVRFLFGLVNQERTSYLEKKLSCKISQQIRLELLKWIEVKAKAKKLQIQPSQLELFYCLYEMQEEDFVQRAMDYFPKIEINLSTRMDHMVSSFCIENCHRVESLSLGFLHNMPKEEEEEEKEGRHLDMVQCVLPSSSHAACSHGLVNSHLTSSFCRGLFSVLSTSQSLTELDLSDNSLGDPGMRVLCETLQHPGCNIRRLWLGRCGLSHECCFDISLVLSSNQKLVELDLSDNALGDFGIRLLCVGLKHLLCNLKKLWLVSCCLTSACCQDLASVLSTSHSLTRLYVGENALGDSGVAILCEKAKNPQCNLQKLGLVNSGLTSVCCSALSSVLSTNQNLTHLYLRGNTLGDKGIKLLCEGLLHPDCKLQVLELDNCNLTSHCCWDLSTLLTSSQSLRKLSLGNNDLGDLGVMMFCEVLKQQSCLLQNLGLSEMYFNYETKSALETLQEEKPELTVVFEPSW

Molecule	cell death by LDH release (qualitative) (THP-1 cells [1])	cell death by LDH release (qualitative) (A549 cells [2])	ASC protein levels co-immunoprecipitated with TSPO (qualitative) (ASC)	reduction of cell death (Vero cells)	PI cell death, ORF3a induced cytotoxicity (qualitative) (A549 cells [3])	PI cell death (qualitative) (THP-1 cells [4])	binding result [5]
CCNC1=Nc2ccc(Cl)cc2C(C)(c2ccccc2)O1 (stereo not shown) [etifoxine]	confer cytoprotection	confer cytoprotection	decrease in protein levels	approximately 50%	significant decrease		
CCCCCCN(CCCCCC)C(=O)Cc1c(-c2ccc(F)cc2)[nH]c2ccccc12 [FGIN, FGIN 1-27]	confer cytoprotection	confer cytoprotection			significant decrease	decrease	
CCC(C)N(C)C(=O)c1cc2ccccc2c(-c2ccccc2Cl)n1 (stereo not shown) [PK11195]	confer cytoprotection	confer cytoprotection	decrease in protein levels		significant decrease	decrease	
CCN(Cc1ccccc1)C(=O)Cn1c(=O)n(C)c2cnc(-c3ccccc3)nc21 [XBD173]	confer cytoprotection	confer cytoprotection			significant decrease	decrease	
TSPO (the 18 kDa translocator protein) (other, also called peripheral benzodiazepine receptor) APPWVPAMGFTLAPSLGCFVGSRFVHGEGLRWYAGLQKPSWHPPHWVLGPVWGTLYSAMGYGSYLVWKELGGFTEKAVVPLGLYTGQLALNWAWPPIFFGARQMGWALVDLLLVSGAAAATTVAWYQVSPLAARLLYPYLAWLAFTTTLNYCVWRDNHGWRGGRRLPE							no binding
